Laboratory results from patent US10544112B2, “Identification of ebsulfur analogues with broad-spectrum antifungal activity” (priority 2017, dated 2020).
Values after ≈ are worked out from the molar mass of the structure shown. Read-outs that look alike come from different tables or passages of the source.

Key:
J774A.1 cell line = details: for cell death: J774, 10 μg/mL, 24 h
Experimental: The human embryonic kidney cell line HEK-293 (ATCC CRL-1573) and the murine macrophage cell line J774A.1 (ATCC TIB-67) were kindly provided by Dr. Matthew S. Gentry and Dr. David J. Feola (University of Kentucky, Lexington, Ky., USA), respectively. The HEK-293 cell line was grown in Dulbecco's Modified Eagle's Medium (DMEM) (ATCC, Manassas, Va., USA) with 10% fetal bovine serum (FBS) (ATCC, Manassas, Va., USA) and 1% Pen/Strep (ATCC, Manassas, Va., USA). The J774A.1 cell line was grown under the same conditions, except that the medium used was a different type of DMEM (catalog #30-2002, ATCC, Manassas, Va., USA). The HEK-293 cell line was passaged by trypsinization with 0.05%-trypsin-0.53 mM EDTA (ATCC, Manassas, Va., USA). The J774A.1 cell line was passaged mechanically by cell scrapers (ATCC, Manassas, Va., USA). Cell confluency was observed by using a Nikon Eclipse TS100 microscope (Minato, Tokyo, Japan).
Mammalian cytotoxicity assays were performed as previously described with minor modifications (FIG. 4). The HEK-293 and J774A.1 cell lines were grown in various Dulbecco's Modified Eagle's Medium (DMEM) with 10% fetal bovine serum (FBS) and 1% Pen/Strep at 37° C. with 5% CO2. The confluent cells were either trypsinized with 0.05%-trypsin-0.53 mM EDTA (HEK-293 cell line) or mechanically removed by cell scrapers (J774A.1 cell line). […] The cells were incubated with tested compounds for another 24 h at 37° C. with 5% CO2. Cell survival was assessed by resazurin assay. Each well was treated with resazurin (10 μL of a 25 mg/L solution) for 6 h. […] Dead cells remain purple/blue. The percentage of survival rate was calculated by using the following formula: [(test value)/(control value)×100].

[1] = test system: Candida krusei ATCC 6258 (strain I); assay: Antifungal MIC determination (CLSI M27-A3, 96-well); type: cell-based; details: strain I; compounds 1-4n and AmB; 48 h, RPMI 1640
Outline: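 Broth microdilution per CLSI M27-A3 (modified) in RPMI 1640 buffered to pH 7.0 with 0.165 M MOPS; yeast inocula grown in PDB, Aspergillus spores from PDA cultures at 25° C. Final drug 12.5-0.02 μg/mL, inoculum 5×10^3 CFU/mL; incubation 48 h at 35° C.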

[2] = test system: Murine red blood cells (mRBCs); assay: Hemolytic assay
Experimental: Hemolytic activity was determined as previously described with minor modifications (FIG. 3). […] Compounds were serially diluted in Eppendorf tubes containing H2O (100 μL). […] The tubes were then incubated for 1 h at 37° C. Tubes containing dd H2O (200 μL) and triton X-100® (1% v/v, 2 μt) served as negative (blank) and positive (100%) control, respectively. The percent hemolysis was calculated using the following equation: % hemolysis=[(absorbance of sample)−(absorbance of blank)]×100/(absorbance of positive control). Fifty percent hemolysis (HC50) values were defined as the concentrations of compounds required to lyse 50% of the mRBCs.

[3] = test system: C. albicans ATCC 64124 (strain B); type: cell-based, Candida albicans
Experimental: The efficiency of the compounds to kill C. albicans ATCC 64124 (strain B) was monitored using a previously published protocol. The cell suspensions were prepared to achieve an inoculum of approximately 1-4×10^5 CFU/mL in RPMI 1640 medium at 35° C. […] After fungal cell addition, at 0, 3, 6, 9, 12, and 24 h, the tubes were vortexed and 100 μL aliquots were removed from each solution, spread onto PDA plates, and incubated at 35° C. Colony counts were determined after 24 h of incubation. The experiments were performed in duplicate (FIG. 2).
Time-kill assays with ebsulfur (2a) and analogue 3a (FIG. 2) were performed to determine the rate of fungicidal activity of the compounds if the invention.

Row | Compound | cell death (J774A.1 cell line) | MIC-0 [1] | fold MIC lower than the hemolytic concentration ([2]; Aspergillus strains) | fold MIC lower than the hemolytic concentration ([2]; Candida strains) | hemolytic concentration ([2]; mRBCs, 1 h at 37° C.) | fungicidal or fungistatic effect [3] | reduction of fungal cells [3] | fungicidal or fungistatic effect ([3]; 1× MIC) | fungicidal or fungistatic effect ([3]; 2× MIC) | concentration without any toxicity (J774A.1 cell line; J774, 24 h)
1 | CCCCCn1sc2ccccc2c1=O [Compound 3a] | approximately 50% | 0.78 µg/mL (≈ 3.52 µM) | ≥ 195 fold | at least 5 fold | approximately 3.9 μg/mL | fungistatic | 4 log | fungistatic | fungistatic | –
2 | CCCCCCn1sc2ccccc2c1=O [Compound 3b] | approximately 50% | 0.78 µg/mL (≈ 3.31 µM) | – | – | – | – | – | – | – | –
3 | CC(C)(C)n1sc2ccccc2c1=O [Compound 3g] | – | 0.78 µg/mL (≈ 3.76 µM) | – | – | – | – | – | – | – | up to 5 μg/mL
